# Data published in US20090137451A1, “Methods for Assessing Suitability of Cancer Patients for Treatment with Histone Deacetylase Inhibitors” (Agency for Science, Technology and Research, priority 2005, published 2009).
# How the values were obtained:
# Type in all cases: cell-based, human
# [1] = system: ER-E2F1 expressing HCT116 p53 null cells; assay: Cell death (sub-G1) by PI staining and FACS in ER-E2F1 expressing cells; details: for sub-G1 cells indicative of cell death: 48 h; for SAHA-induced apoptosis (cells in Sub-G1): in the presence of 4-OHT, SAHA 24 h
# Procedure: The effect of Bim-specific siRNA on HDACI-induced apoptosis upon E2F1 overexpression. (a) ER-E2F1 were transfected with nonspecific control siRNA (NC siRNA) or Bim-specific siRNA for 48 h, and then either left untreated (−) or treated with 4-OHT, SAHA or both for additional 24 h. […] Cell death was analyzed by flow cytometry following propidium iodide staining (right panel). The percentages of cells in Sub-G1 are indicated. (b) ER-E2F1 were transfected with nonspecific control siRNA (NC siRNA) or Bim-specific siRNA for 48 h, and then either left untreated (−) or treated with 4-OHT, 100 nM TSA or both for additional 48 h.
# Cells were harvested and fixed in 70% ethanol. Fixed cells were stained with propidium iodide (50 μg/ml) after treatment with RNase (100 μg/ml). The stained cells were analyzed for DNA content by fluorescence-activated cell sorting (FACS) in a FACScalibur (Becton Dickinson Instrument, San Jose, Calif.). Cell cycle fractions were quantified using the CellQuest software (Becton Dickinson).
# To definitively establish the role of Bim in HDACIs-induced apoptosis upon E2F1 activation, we used RNA interference to silence Bim expression and analyzed its biological effects. To this end, we transfected ER-E2F1 expressing cells with Bim-specific siRNA and treated with SAHA for 24 h in the presence or absence of 4-OHT. As controls, cells were also transfected with an irrelevant siRNA.
# [2] = system: ER-E2F1 expressing cells; assay: Colony formation assay; details: 100 nM TSA or 1 μM SAHA for 24 h, with 4-OHT; colonies stained with crystal violet
# Procedure: FIG. 1. HDACIs SAHA and TSA promote E2F1-mediated cell death (a) p53 null HCT116-ER-E2F1 expressing cells or control ER expressing cells were treated with or without 4-OHT. Cyclin E and p73 expression were evaluated by immunoblot analysis. (b) ER-E2F1 expressing or control cells were treated with 1 μM SAHA (left panel) or 100 nM TSA (right panel), in the presence or absence of 4-OHT. After 48 h, cells were harvested and cell death was assessed by PI staining using FACS. Mean results of three independent experiments were shown with standard deviations. (c) Colony formation assay. […] (d) Saos-2 and HCT116 cells infected with adenovirus containing E2F1 or LacZ as indicated were treated with 100 nM TSA for 24 h, and cell death was analyzed by FACS.
# 1000 cells were plated per well of a 6-well plate for 24-48 h and then followed by 100 nM TSA or 1 μM SAHA treatment in the presence or absence of 4-OHT. […] Colonies were stained with crystal violet and counted after 12 days.
# To investigate whether E2F1 activation induces sensitization of cells to HDACIs-induced cell death, we analyzed the cell cycle profiles by FACS (fluorescence-activated cell sorter) in ER-E2F1 expressing HCT116 p53 null cells (ER-E2F1) and the control cells expressing ER-binding domain only (ER) following treatment with the HDACIs SAHA or TSA in the presence or absence of 4-OHT. […]
# [3] = system: E1A-transformed IMR90 cells; assay: Apoptosis by FACS analysis in E1A-transformed IMR90 cells; details: SAHA 2.5 μM, TSA 300 nM; 48 h
# Procedure: FIG. 5. Rb inactivation enhances Bim expression and sensitizes HDACIs-induced apoptosis. (a) U2OS cells were infected with Ad-E1A or Ad-LacZ for 24 h and treated with SAHA (1 μM) for additional 48 h. Cell death was determined by FACS analysis (right panel), and the levels of Bim and p73 were assessed by immunoblotting using antibodies against the indicated proteins (left panel). (b) Normal IMR90 and transformed IMR90-E1A cells were treated with SAHA at indicated concentrations and cell proliferation was evaluated for indicated times. (c) Expression of E1A results in upregulation of Bim and apoptosis potentiation in response to SAHA and TSA. […] Cell death was determined by FACS analysis (left panel), and the levels of Bim and p73 were assessed by immunoblotting using antibodies against indicated proteins (right panel). […] The expressions of Bim and β-actin were assessed by immunoblotting using antibodies against the indicated proteins. Apoptosis was evaluated by FACS analysis. […] The expressions of E2F1, Bim and PARP were assessed by immunoblotting using antibodies against the indicated proteins. […] Apoptosis was evaluated by FACS analysis.
# Cells were harvested and fixed in 70% ethanol. […] The stained cells were analyzed for DNA content by fluorescence-activated cell sorting (FACS) in a FACScalibur (Becton Dickinson Instrument, San Jose, Calif.). […]
# [4] = system: normal IMR90 cells; assay: Cell proliferation, dose-response, normal IMR90 cells; details: dose-response study, FIG. 5b
# Procedure: (§1) FIG. 5. Rb inactivation enhances Bim expression and sensitizes HDACIs-induced apoptosis. (a) U2OS cells were infected with Ad-E1A or Ad-LacZ for 24 h and treated with SAHA (1 μM) for additional 48 h. Cell death was determined by FACS analysis (right panel), and the levels of Bim and p73 were assessed by immunoblotting using antibodies against the indicated proteins (left panel). (b) Normal IMR90 and transformed IMR90-E1A cells were treated with SAHA at indicated concentrations and cell proliferation was evaluated for indicated times. (c) Expression of E1A results in upregulation of Bim and apoptosis potentiation in response to SAHA and TSA. IMR90 and IMR90-E1A cells were treated with SAHA (2.5 μM) and TSA (300 nM) for 48 h. Cell death was determined by FACS analysis (left panel), and the levels of Bim and p73 were assessed by immunoblotting using antibodies against indicated proteins (right panel). (d) IMR90-E1A cells transfected with Bim siRNA or control siRNA (NC siRNA) were treated with TSA (800 nM) for 24 h. The expressions of Bim and β-actin were assessed by immunoblotting using antibodies against the indicated proteins. Apoptosis was evaluated by FACS analysis. […] The expressions of E2F1, Bim and PARP were assessed by immunoblotting using antibodies against the indicated proteins. […] Apoptosis was evaluated by FACS analysis. […]
# [5] = system: transformed IMR90-E1A cells; assay: Cell proliferation, dose-response, transformed IMR90-E1A cells; details: dose-response study, FIG. 5b
# Procedure: as §1
# [6] = agent alone, 1 μM SAHA, PI staining FACS
# [7] = both 4-OHT and HDACI (1 μM SAHA or 100 nM TSA)
Compound,"sub-G1 cells indicative of cell death [1, 6]","sub-G1 cells indicative of cell death [1, 7]",SAHA-induced apoptosis (cells in Sub-G1) ([1]; cells treated with Bim siRNA) [%],SAHA-induced apoptosis (cells in Sub-G1) ([1]; control siRNA treated cells) [%],effect of E2F1 activation by 4-OHT on HDACI-induced growth inhibition [2],apoptosis [3] [%],proliferation [4],proliferation [5]
4-hydroxytamoxifen [4-OHT],approximately 13%,,,,,,,
"O=C(CCCCCCC(=O)Nc1ccccc1)NO [SAHA, suberoylanilide hydroxamic acid]",~23%,75%,18,49,greatly promoted,~60,substantially inhibited proliferation,substantially inhibited proliferation
"CC(/C=C/C(=O)NO)=C\[C@@H](C)C(=O)c1ccc(N(C)C)cc1 [TSA, Trichostatin A]",,Identical results,,,greatly promoted,~60,,
